# From patent US20120138290A1, “METHODS TO STIMULATE BIOGENIC METHANE PRODUCTION FROM HYDROCARBON-BEARING FORMATIONS” (SYNTHETIC GENOMICS, INC., priority 2010, published 2012)
# Values joined by “and” are separate entries in the source; they are usually repeats but may differ in a detail not shown here. Equal entries are not always repeated.
# Key:
# [1] = test system: functional microbial subcommunity (inoculum 2L-245 from upflow reactor); test: Stimulation of methane production: batch cultures with additive/stimulant, with or without coal, headspace methane by gas chromatography; format: cell-based
# Description: The availability of an inoculum of a functional microbial subcommunity capable of producing methane from coal in vitro prompted laboratory experiments where various stimulants were tested for their effect on methane production. […] The experiments were conducted at three different levels of additives (0.5×, 1× and 2×): additives (stimulants) were added in the following three concentrations. […] DMY media: DM media composition in milli-Q water is made as described above with the addition of 0.5 g/L yeast extract. DMSC media: DM media in milli-Q water is made as described above with the addition of 100 g/L sterile, anaerobic, sub-bituminous coal from the San Juan Basin. DMSCY media: DM media in milli-Q water is made as described above with the addition of 100 g/L sterile, anaerobic, sub-bituminous coal from the San Juan Basin and 0.5 g/L yeast extract. The coal used in these experiments originated from the San Juan Basin (BHP Billiton, Tex.). […] Each stimulant was tested in the presence or absence of coal. The experiments were conducted at three different concentrations of additives (0.5× (low), 1× (medium), and 2× (high)) as described above. Each sample type was conducted in 4 replicates. […] Control sample types were media alone, media plus coal, media plus yeast extract and media plus coal and yeast extract. At each time point, headspace measurements were taken using gas chromatography (microGC […], Agilent Technologies, Inc.). […] Each experiment was performed in quadruplicate. Methane at time 0 was assumed to be 0%.
# [2] = test system: formate-utilizing, methane-producing species in the enrichment culture; test: Stimulation of methane production by vanadium in cultures utilizing formate; format: cell-based; conditions: for Methane (% in head space volume of 21 ml): DM media with 50 mM formate, 48 hours at 50° C., replicate cultures
# Description: The anaerobic reactor system described above in Example 1 contains formate-utilizing, methane-producing species in the enrichment culture. Methanogens in the culture were previously identified by 16sRNA sequencing.
# A 10% vol./vol. inoculum was taken from the anaerobic reactor system described above in Example 1, and the effect of vanadium on methane production by methanogens utilizing formate as a carbon and energy source was determined.
# Cultures, established with DM media (prepared as described above) containing 50 mM formate as the sole carbon and energy source, were sub-cultured with the same media (in the absence of vanadium) or media supplemented with either 5 or 10 μM VCl3. Methane production was measured after 48 hours of growth at 50° C.
# [3] = DMSCY (coal), 5 μM VCl3, week 1
# [4] = DMSCY (coal), 5 μM VCl3, week 3
# [5] = DMSCY (coal), 5 μM VCl3, week 5
# [6] = DMSCY (coal), 10 μM VCl3, week 1
# [7] = DMSCY (coal), 10 μM VCl3, week 3
# [8] = DMSCY (coal), 10 μM VCl3, week 5
# [9] = DMY (no coal), 5 μM VCl3, week 1
# [10] = DMY (no coal), 5 μM VCl3, week 3
# [11] = DMY (no coal), 5 μM VCl3, week 5
# [12] = DMY (no coal), 10 μM VCl3, week 1
# [13] = DMY (no coal), 10 μM VCl3, week 3
# [14] = DMY (no coal), 10 μM VCl3, week 5
# [15] = DMSCY (coal), 5.0 μM MnCl2, week 3
# [16] = DMSCY (coal), 5.0 μM MnCl2, week 5
# [17] = DMSCY (coal), 10 μM MnCl2, week 1
# [18] = DMSCY (coal), 10 μM MnCl2, week 3
# [19] = DMSCY (coal), 10 μM MnCl2, week 5
# [20] = DMY (no coal), 5.0 μM MnCl2, week 1
# [21] = DMY (no coal), 5.0 μM MnCl2, week 3
# [22] = DMY (no coal), 5.0 μM MnCl2, week 5
# [23] = DMY (no coal), 10 μM MnCl2, week 1
# [24] = DMY (no coal), 10 μM MnCl2, week 3
# [25] = DMY (no coal), 10 μM MnCl2, week 5
compound,measurement,setting,value
"[Cl-].[Cl-].[Cl-].[V+3] [VCl3, vanadium (III) chloride]",methane production (Average),[1]; [3],0.27
same,methane production (RepA-Rep D),[1]; [3],0.30 and 0.26 and 0.25
same,methane production (Average),[1]; [4],1.50
same,methane production (RepA-Rep D),[1]; [4],1.51 and 1.40 and 1.21 and 1.88
same,methane production (Average),[1]; [5],2.44
same,methane production (RepA-Rep D),[1]; [5],2.41 and 2.28 and 1.95 and 3.13
same,methane production (Average),[1]; [6],0.25
same,methane production (RepA-Rep D),[1]; [6],0.29 and 0.25 and 0.24
same,methane production (Average),[1]; [7],1.06
same,methane production (RepA-Rep D),[1]; [7],1.15 and 1.04 and 1.01
same,methane production (Average),[1]; [8],1.36
same,methane production (RepA-Rep D),[1]; [8],1.49 and 1.31 and 1.30 and 1.33
same,methane production (Average),[1]; [9],0.20
same,methane production (RepA-Rep D),[1]; [9],0.21 and 0.20
same,methane production (Average),[1]; [10],0.71
same,methane production (RepA-Rep D),[1]; [10],0.78 and 0.69 and 0.67 and 0.80
same,methane production (Average),[1]; [11],0.70
same,methane production (RepA-Rep D),[1]; [11],0.75 and 0.70 and 0.68 and 0.67
same,methane production (Average),[1]; [12],0.22
same,methane production (RepA-Rep D),[1]; [12],0.21 and 0.251 and 0.19 and 0.22
same,methane production (Average),[1]; [13],0.77
same,methane production (RepA-Rep D),[1]; [13],0.85 and 0.7495 and 0.70 and 0.78
same,methane production (Average),[1]; [14],0.76
same,methane production (RepA-Rep D),[1]; [14],0.76 and 0.82 and 0.70 and 0.77
same,effect on the production of methane,"[1]; intermediate concentration of the stimulant (FIGS. 1A, 1B, 2A)",statistically significant positive effect
same,dependence of methane production on coal,[1]; with or without coal,only observed in the presence of coal
same,Methane (% in head space volume of 21 ml),[2]; 5 μM VCl3 final,2.0% and 1.2%
same,Methane (% in head space volume of 21 ml),[2]; 10 μM VCl3 final,1.9% and 1.4%
same,methane formation relative to cultures without VCl3 (average),"[2]; VCl3-supplemented cultures (5 or 10 μM), 50 mM formate, 48 hours",approximately 2 fold
manganese chloride [MnCl2],methane production (Average),"[1]; DMSCY (coal), 5.0 μM MnCl2, week 1",0.44
same,methane production (Average),[1]; [15],1.56
same,methane production (RepA-Rep D),[1]; [15],1.51 and 1.55 and 1.53 and 1.64
same,methane production (Average),[1]; [16],1.82
same,methane production (RepA-Rep D),[1]; [16],1.94 and 1.81 and 1.70 and 1.85
same,methane production (Average),[1]; [17],0.42
same,methane production (RepA-Rep D),[1]; [17],0.44 and 0.41 and 0.43
same,methane production (Average),[1]; [18],1.46
same,methane production (RepA-Rep D),[1]; [18],1.45 and 1.49 and 1.43 and 1.48
same,methane production (Average),[1]; [19],1.72
same,methane production (RepA-Rep D),[1]; [19],1.63 and 1.82 and 1.71 and 1.70
same,methane production (Average),[1]; [20],0.34
same,methane production (RepA-Rep D),[1]; [20],0.34 and 0.33 and 0.36
same,methane production (Average),[1]; [21],0.92
same,methane production (RepA-Rep D),[1]; [21],0.92 and 0.90 and 0.94
same,methane production (Average),[1]; [22],0.87
same,methane production (RepA-Rep D),[1]; [22],0.89 and 0.86 and 0.85 and 0.88
same,methane production (Average),[1]; [23],0.36
same,methane production (RepA-Rep D),[1]; [23],0.39 and 0.38 and 0.35
same,methane production (Average),[1]; [24],1.02
same,methane production (RepA-Rep D),[1]; [24],1.00 and 1.05 and 1.04 and 1.01
same,methane production (Average),[1]; [25],0.97
same,methane production (RepA-Rep D),[1]; [25],0.89 and 1.03 and 0.96 and 1.01
